{"source": "PubChem BioAssay (NCI)", "assay_in_all_cases": "DTP human tumour cell line panel, 48 h", "key": {"[1]": {"tested_on": "SK-MEL-5 melanoma"}, "[2]": {"tested_on": "ACHN renal"}, "[3]": {"tested_on": "UACC-62 melanoma"}, "[4]": {"tested_on": "SF-295 CNS"}, "[5]": {"tested_on": "M14 melanoma"}, "[6]": {"tested_on": "RXF 393 renal"}, "[7]": {"tested_on": "COLO 205 colon"}, "[8]": {"tested_on": "SK-OV-3 ovarian"}, "[9]": {"tested_on": "HS 578T breast"}, "[10]": {"tested_on": "HOP-92 NSCLC"}, "[11]": {"tested_on": "HCT-15 colon"}, "[12]": {"tested_on": "SR leukemia"}, "[13]": {"tested_on": "K-562 leukemia"}, "[14]": {"tested_on": "CAKI-1 renal"}, "[15]": {"tested_on": "OVCAR-3 ovarian"}, "[16]": {"tested_on": "BT-549 breast"}, "[17]": {"tested_on": "NCI-H226 lung"}, "[18]": {"tested_on": "SNB-19 CNS"}, "[19]": {"tested_on": "CCRF-CEM leukemia"}, "[20]": {"tested_on": "PC-3 prostate"}, "[21]": {"tested_on": "SN12C renal"}, "[22]": {"tested_on": "A498 renal"}, "[23]": {"tested_on": "UACC-257 melanoma"}, "[24]": {"tested_on": "U251 CNS"}, "[25]": {"tested_on": "MCF7 breast"}, "[26]": {"tested_on": "OVCAR-4 ovarian"}, "[27]": {"tested_on": "NCI-H522 lung"}, "[28]": {"tested_on": "SW-620 colon"}, "[29]": {"tested_on": "UO-31 renal"}, "[30]": {"tested_on": "HT29 colon"}, "[31]": {"tested_on": "RPMI-8226 leukemia"}, "[32]": {"tested_on": "TK-10 renal"}, "[33]": {"tested_on": "MDA-MB-231 breast"}, "[34]": {"tested_on": "NCI/ADR-RES ovarian"}, "[35]": {"tested_on": "SF-268 CNS"}, "[36]": {"tested_on": "IGROV1 ovarian"}, "[37]": {"tested_on": "SF-539 CNS"}, "[38]": {"tested_on": "KM12 colon"}, "[39]": {"tested_on": "NCI-H460 lung"}, "[40]": {"tested_on": "OVCAR-5 ovarian"}, "[41]": {"tested_on": "LOX IMVI melanoma"}, "[42]": {"tested_on": "A549 NSCLC"}, "[43]": {"tested_on": "MOLT-4 leukemia"}, "[44]": {"tested_on": "MALME-3M melanoma"}, "[45]": {"tested_on": "HCC-2998 colon"}, "[46]": {"tested_on": "HOP-62 NSCLC"}, "[47]": {"tested_on": "OVCAR-8 ovarian"}, "[48]": {"tested_on": "HCT-116 colon"}, "[49]": {"tested_on": "HL-60(TB) leukemia"}, "[50]": {"tested_on": "NCI-H23 lung"}, "[51]": {"tested_on": "MDA-MB-435"}, "[52]": {"tested_on": "DU-145 prostate"}, "[53]": {"tested_on": "786-0 renal"}}, "note": "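Growth conditions: 96-well plates. Treatment: test compound, 48 hours, 5 concentrations. Analysis: linear interpolation between bracketing concentrations; unreached endpoints set to highest concentration. GI50 marks 50% less growth. Definition used: TGI = concentration required for complete inhibition of growth.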", "data": [{"smiles": "N#CC1=C(N)Oc2c(ccc3ccccc23)C1c1cccs1", "note": "(stereo unspecified)", "values": [{"measurement": "GI50", "setting": "[1]", "result": 42.7, "unit": "nM"}, {"measurement": "TGI", "setting": "[1]", "result": 5200, "unit": "nM"}, {"measurement": "GI50", "setting": "[2]", "result": 84, "unit": "nM"}, {"measurement": "TGI", "setting": "[2]", "result": 14800, "unit": "nM"}, {"measurement": "GI50", "setting": "[3]", "result": 64.7, "unit": "nM"}, {"measurement": "TGI", "setting": "[3]", "result": 15200, "unit": "nM"}, {"measurement": "GI50", "setting": "[4]", "result": 51.1, "unit": "nM"}, {"measurement": "TGI", "setting": "[4]", "result": 17000, "unit": "nM"}, {"measurement": "GI50", "setting": "[5]", "result": 40.5, "unit": "nM"}, {"measurement": "TGI", "setting": "[5]", "result": 11900, "unit": "nM"}, {"measurement": "GI50", "setting": "[6]", "result": 31.3, "unit": "nM"}, {"measurement": "TGI", "setting": "[6]", "result": 21800, "unit": "nM"}, {"measurement": "GI50", "setting": "[7]", "result": 71.6, "unit": "nM"}, {"measurement": "TGI", "setting": "[7]", "result": 591, "unit": "nM"}, {"measurement": "GI50", "setting": "[8]", "result": 56.5, "unit": "nM"}, {"measurement": "TGI", "setting": "[8]", "result": 14700, "unit": "nM"}, {"measurement": "GI50", "setting": "[9]", "result": 30.2, "unit": "nM"}, {"measurement": "TGI", "setting": "[9]", "result": 14100, "unit": "nM"}, {"measurement": "GI50", "setting": "[10]", "result": 57.3, "unit": "nM"}, {"measurement": "TGI", "setting": "[10]", "result": 14100, "unit": "nM"}, {"measurement": "GI50", "setting": "[11]", "result": 44.2, "unit": "nM"}, {"measurement": "TGI", "setting": "[11]", "result": 10900, "unit": "nM"}, {"measurement": "GI50", "setting": "[12]", "result": 33.7, "unit": "nM"}, {"measurement": "TGI", "setting": "[12]", "result": 7810, "unit": "nM"}, {"measurement": "GI50", "setting": "[13]", "result": 32.1, "unit": "nM"}, {"measurement": "TGI", "setting": "[13]", "result": 12000, "unit": "nM"}, {"measurement": "GI50", "setting": "[14]", "result": 46.5, "unit": "nM"}, {"measurement": "TGI", "setting": "[14]", "result": 16100, "unit": "nM"}, {"measurement": "GI50", "setting": "[15]", "result": 26.9, "unit": "nM"}, {"measurement": "TGI", "setting": "[15]", "result": 70.4, "unit": "nM"}, {"measurement": "GI50", "setting": "[16]", "result": 68.8, "unit": "nM"}, {"measurement": "TGI", "setting": "[16]", "result": 3090, "unit": "nM"}, {"measurement": "GI50", "setting": "[17]", "result": 1060, "unit": "nM"}, {"measurement": "TGI", "setting": "[17]", "result": 19000, "unit": "nM"}, {"measurement": "GI50", "setting": "[18]", "result": 321, "unit": "nM"}, {"measurement": "TGI", "setting": "[18]", "result": 20700, "unit": "nM"}, {"measurement": "GI50", "setting": "[19]", "result": 33.7, "unit": "nM"}, {"measurement": "TGI", "setting": "[19]", "result": 11400, "unit": "nM"}, {"measurement": "GI50", "setting": "[20]", "result": 41, "unit": "nM"}, {"measurement": "TGI", "setting": "[20]", "result": 15000, "unit": "nM"}, {"measurement": "GI50", "setting": "[21]", "result": 81.6, "unit": "nM"}, {"measurement": "TGI", "setting": "[21]", "result": 12900, "unit": "nM"}, {"measurement": "GI50", "setting": "[22]", "result": 23.2, "unit": "nM"}, {"measurement": "TGI", "setting": "[22]", "result": 84.3, "unit": "nM"}, {"measurement": "GI50", "setting": "[23]", "result": 51.4, "unit": "nM"}, {"measurement": "TGI", "setting": "[23]", "result": 22200, "unit": "nM"}, {"measurement": "GI50", "setting": "[24]", "result": 40.7, "unit": "nM"}, {"measurement": "TGI", "setting": "[24]", "result": 11300, "unit": "nM"}, {"measurement": "GI50", "setting": "[25]", "result": 35.4, "unit": "nM"}, {"measurement": "TGI", "setting": "[25]", "result": 13900, "unit": "nM"}, {"measurement": "GI50", "setting": "[26]", "result": 430, "unit": "nM"}, {"measurement": "TGI", "setting": "[26]", "result": 18700, "unit": "nM"}, {"measurement": "GI50", "setting": "[27]", "result": 18.5, "unit": "nM"}, {"measurement": "TGI", "setting": "[27]", "result": 84.6, "unit": "nM"}, {"measurement": "GI50", "setting": "[28]", "result": 36.6, "unit": "nM"}, {"measurement": "TGI", "setting": "[28]", "result": 15200, "unit": "nM"}, {"measurement": "GI50", "setting": "[29]", "result": 69.6, "unit": "nM"}, {"measurement": "TGI", "setting": "[29]", "result": 17500, "unit": "nM"}, {"measurement": "GI50", "setting": "[30]", "result": 53.6, "unit": "nM"}, {"measurement": "TGI", "setting": "[30]", "result": 1120, "unit": "nM"}, {"measurement": "GI50", "setting": "[31]", "result": 32.9, "unit": "nM"}, {"measurement": "TGI", "setting": "[31]", "result": 3600, "unit": "nM"}, {"measurement": "GI50", "setting": "[32]", "result": 66.9, "unit": "nM"}, {"measurement": "TGI", "setting": "[32]", "result": 20200, "unit": "nM"}, {"measurement": "GI50", "setting": "[33]", "result": 140, "unit": "nM"}, {"measurement": "TGI", "setting": "[33]", "result": 2720, "unit": "nM"}, {"measurement": "GI50", "setting": "[34]", "result": 36.8, "unit": "nM"}, {"measurement": "TGI", "setting": "[34]", "result": 6070, "unit": "nM"}, {"measurement": "GI50", "setting": "[35]", "result": 80.7, "unit": "nM"}, {"measurement": "TGI", "setting": "[35]", "result": 10100, "unit": "nM"}, {"measurement": "GI50", "setting": "[36]", "result": 82.5, "unit": "nM"}, {"measurement": "TGI", "setting": "[36]", "result": 15800, "unit": "nM"}, {"measurement": "GI50", "setting": "[37]", "result": 26, "unit": "nM"}, {"measurement": "TGI", "setting": "[37]", "result": 69.6, "unit": "nM"}, {"measurement": "GI50", "setting": "[38]", "result": 43.4, "unit": "nM"}, {"measurement": "TGI", "setting": "[38]", "result": 3450, "unit": "nM"}, {"measurement": "GI50", "setting": "[39]", "result": 36, "unit": "nM"}, {"measurement": "TGI", "setting": "[39]", "result": 662, "unit": "nM"}, {"measurement": "GI50", "setting": "[40]", "result": 129, "unit": "nM"}, {"measurement": "TGI", "setting": "[40]", "result": 16500, "unit": "nM"}, {"measurement": "GI50", "setting": "[41]", "result": 79.8, "unit": "nM"}, {"measurement": "TGI", "setting": "[41]", "result": 14000, "unit": "nM"}, {"measurement": "GI50", "setting": "[42]", "result": 61.5, "unit": "nM"}, {"measurement": "TGI", "setting": "[42]", "result": 14000, "unit": "nM"}, {"measurement": "GI50", "setting": "[43]", "result": 59.4, "unit": "nM"}, {"measurement": "TGI", "setting": "[43]", "result": 14600, "unit": "nM"}, {"measurement": "GI50", "setting": "[44]", "result": 38, "unit": "nM"}, {"measurement": "TGI", "setting": "[44]", "result": 24300, "unit": "nM"}, {"measurement": "GI50", "setting": "[45]", "result": 132, "unit": "nM"}, {"measurement": "TGI", "setting": "[45]", "result": 3890, "unit": "nM"}, {"measurement": "GI50", "setting": "[46]", "result": 58.3, "unit": "nM"}, {"measurement": "TGI", "setting": "[46]", "result": 18500, "unit": "nM"}, {"measurement": "GI50", "setting": "[47]", "result": 55, "unit": "nM"}, {"measurement": "TGI", "setting": "[47]", "result": 12100, "unit": "nM"}, {"measurement": "GI50", "setting": "[48]", "result": 50.2, "unit": "nM"}, {"measurement": "TGI", "setting": "[48]", "result": 1830, "unit": "nM"}, {"measurement": "GI50", "setting": "[49]", "result": 28.3, "unit": "nM"}, {"measurement": "TGI", "setting": "[49]", "result": 79.3, "unit": "nM"}, {"measurement": "GI50", "setting": "[50]", "result": 62.8, "unit": "nM"}, {"measurement": "TGI", "setting": "[50]", "result": 12700, "unit": "nM"}, {"measurement": "GI50", "setting": "[51]", "result": 16.8, "unit": "nM"}, {"measurement": "TGI", "setting": "[51]", "result": 42, "unit": "nM"}, {"measurement": "GI50", "setting": "[52]", "result": 46.3, "unit": "nM"}, {"measurement": "TGI", "setting": "[52]", "result": 1030, "unit": "nM"}, {"measurement": "GI50", "setting": "[53]", "result": 57.7, "unit": "nM"}, {"measurement": "TGI", "setting": "[53]", "result": 11500, "unit": "nM"}]}]}
